We go through 1 compound from US20240181125A1, “COMPOSITIONS AND METHODS FOR SCARLESS WOUND HEALING IN DIABETES” (Washington University, priority 2022, published 2024).

SMILES strings stand for the structures. Bridge positions count the residues as written; N and C are the ends. Peptide text beside a SMILES is read from it. * marks the point of attachment. FITC = O=C1OC2(c3ccc(O)cc3Oc3cc(O)ccc32)c2ccc(NC(=S)*)cc21

Series [1] relates to human keratinocyte HaCaT cells. The series is described as follows: Cytotoxicity of PTβR2I on HaCaT cells. It counts as cell-based. Further details: dose or concentration left out as unconfirmed. The settings on record: 1 to 100.
A further series has as its target T1, TβR2 on HDFs (Homo sapiens, UniProt P37173).
T1 construct: host or cells: human dermal fibroblasts (HDFs)
The series is described as follows: PTβR2I binding and competitive binding with TGFβ1 on HDFs (IF anti-TβR2, FITC intensity). It counts as cell-based. The settings on record: 48 hours. On the procedure:
To test PTβR2I binding to cells, HDFs (Lonza) were seeded on type I collagen-coated cover glasses and inserted in a 6-well plate. After 24 hours, the following treatments were added into the wells: 1) PTβR2I solution (10 μg/mL) for 48 hours; 2) PTβR2I solution (10 μg/mL) for 24 hours, and then TGFβ1 (10 ng/ml) for another 24 hours; 3) TGFβ1 (10 ng/mL) for 24 hours, and then PTβR2I (10 μg/mL) for another 24 hours; and 4) both PTβR2I (10 μg/mL) and TGFβ1 (10 ng/ml) for 48 hours. Control wells contained HDF-seeded cover glasses without added PTβR2I or TGFβ1, and incubated for 48 hours. After the treatment, cells were fixed by 4% paraformaldehyde and blocked with 10% goat serum in Dulbecco's phosphate-buffered saline (DPBS). Primary antibody mouse anti-TβR2 (1:300, Santa Cruz) that was diluted in DPBS containing 3% BSA was incubated with the cells overnight at 4° C. The cells were washed three times with DPBS. A secondary antibody Alexa Fluro-647 (1:300, Fisher Scientific) was then applied for 2 h at room temperature, followed by incubating with DAPI (Millipore-Sigma) for five minutes.
To validate the above results, the fluorescence intensity of PTβR2I bound to the HDFs was measured for each treatment. Briefly, HDFs (Lonza) were seeded on type I collagen-coated 96-well black microplates. […] The fluorescence intensity was measured using the same microplate reader.

Series [2] deals with THP-1-derived CD86+M1 macrophages. The series is described as follows: mRNA expression (RT-PCR), M1 macrophages. It counts as cell-based, human. Particulars: high glucose and TGFβ1. On the procedure: Macrophages were derived from THP-1, a human monocytic cell line (ATCC). THP-1 cells were treated with 100 ng/ml phorbol 12-myristate 13-acetate (PMA, Millipore-Sigma, P1585) for 48 hours, followed by 24 hours in RPMI 1640 medium (ATCC) with 10% FBS and 1% P/S. To induce differentiation into M1 macrophages, the cells were treated with 100 pg/mL lipopolysaccharide (LPS, Millipore-Sigma) and 20 ng/ml interferon-gamma (IFN-γ, Millipore-Sigma) for 48 hours.
To determine the mRNA expression of the cells (HDFs, HaCaTs, and HAECs) treated with TGFβ1 (10 ng/ml) or TGFβ1 (10 ng/ml)/PTβR2I (10 μg/mL) under high glucose conditions, RNA was extracted using Trizol (Invitrogen) and reverse transcribed using a cDNA synthesis kit (Applied Biosystems). Gene expression was performed by real-time RT-PCR, using Maxima SYBR Green/Fluorescein Master Mix (Thermofisher) and selected primer pairs, shown in Table 1 below. β-actin served as the housekeeping gene. The ΔΔCt method was used for data analysis.

The test system of series [3] is human aortic endothelial cells (HAEC). The experiment in a line: Cytotoxicity of PTβR2I on endothelial cells. The arrangement: dose or concentration left out as unconfirmed. The class given is cell-based.
In a further series the test system is HaCaTs. The series is described as follows: Cell proliferation (dsDNA) under high glucose and TGFβ1, HaCaT. It counts as cell-based, human. The settings on record: high glucose, TGFβ1 10 ng/ml, PTβR2I 10 μg/mL; p<0.05. On the procedure: HDFs, HaCaTs, and HAECs were seeded in 96-well plates at respective densities of 1.5×10^4 cells/mL, 2×10^4 cells/mL, and 2×10^4 cells/mL. High glucose (4.5 g/L) basal medium with 1% P/S was used for the culture. After 24 hours, TGFβ1 (10 ng/ml) or TGFβ1 (10 ng/ml)/PTβR2I (10 μg/mL) was added to the medium. The culture continued for three days. The medium was then replaced by papain solution and incubated at 60° C. for 24 hours. The dsDNA content was tested using a Quant-iT™ PicoGreen dsDNA Assay Kit (Invitrogen).

Another series deals with T2, TβR2 on the HDFs (Homo sapiens, UniProt P37173).
T2 construct: host or cells: human dermal fibroblasts (HDFs)
The experiment in a line: Bioactivity of released PTβR2I (cell binding assay on HDFs). It counts as cell-based. Particulars: released on days 3, 8, 14; loadings 10, 20, 50 μg/mL. On the procedure:
Wound dressings were fabricated by encapsulating PTβR2I in the hydrogel solution at 4° C. Briefly, PTβR2I solution was mixed with 6 wt. % hydrogel solution to reach final PTβR2I concentrations of 10 μg/mL, 20 μg/mL and 50 μg/mL. The mixtures were stirred at 4° C. for 12 hours. To determine PTβR2I release kinetics, the mixtures were first incubated at 37° C. to gel. After 1 hour, the supernatant was replaced by a release medium (DPBS with 1% P/S). The medium was then collected at pre-determined time points for 21 days, and a fresh release medium was added after each collection. The concentration of the released PTβR2I was determined by measuring the fluorescence intensity and calculating the corresponding concentration using a standard curve. The bioactivity of the released PTβR2I was evaluated by its ability to bind to the TβR2 on the HDFs. The collected released medium was added to the culture medium of HDFs that were seeded in a 96-well plate. After 2 hours of incubation, the cells were washed three times with DPBS, and the fluorescence intensity was measured using a microplate reader (excitation/emission=485/535 nm).

T2 sequence (P37173 23-567): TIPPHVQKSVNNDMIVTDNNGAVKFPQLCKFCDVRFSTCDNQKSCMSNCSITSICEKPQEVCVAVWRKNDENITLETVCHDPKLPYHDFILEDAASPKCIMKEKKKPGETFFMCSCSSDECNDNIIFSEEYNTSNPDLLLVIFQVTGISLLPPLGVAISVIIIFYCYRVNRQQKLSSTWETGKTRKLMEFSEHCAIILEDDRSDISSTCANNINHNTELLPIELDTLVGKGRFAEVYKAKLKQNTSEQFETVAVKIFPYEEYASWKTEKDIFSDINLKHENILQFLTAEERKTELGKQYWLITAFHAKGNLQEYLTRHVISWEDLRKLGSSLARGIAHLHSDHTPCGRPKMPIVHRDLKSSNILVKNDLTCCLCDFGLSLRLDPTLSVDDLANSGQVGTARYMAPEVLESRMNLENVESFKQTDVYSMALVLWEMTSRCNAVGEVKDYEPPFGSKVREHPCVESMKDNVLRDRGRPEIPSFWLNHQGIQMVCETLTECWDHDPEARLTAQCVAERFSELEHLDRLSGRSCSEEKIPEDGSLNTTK
T1 sequence (P37173 23-567): as above

Consider `CC(C)C[C@@H]1NC(=O)CNC(=O)[C@@H](NC(=O)[C@@H](N)CCC(=O)O)CSSC[C@@H](C(=O)N[C@@H](CCCCNC(=S)Nc2ccc3c(c2)C(=O)OC32c3ccc(O)cc3Oc3cc(O)ccc32)C(=O)O)NC(=O)[C@H](CC(C)C)NC(=O)[C@H](CCCNC(=N)N)NC(=O)[C@H](Cc2c[nH]c3ccccc23)NC(=O)[C@H](C(C)C)NC(=O)[C@H](CCCNC(=N)N)NC(=O)[C@H](CC(=O)O)NC(=O)[C@@H]2CCCN2C(=O)[C@H](CCCNC(=N)N)NC(=O)CNC(=O)[C@H](C(C)C)NC(=O)[C@@H]2CCCN2C(=O)[C@H](CC(C)C)NC1=O` [PTβR2I, ECGLLPVGRPDRVWRLCK-FITC] (H-ECGLLPVGRPDRVWRLCK(FITC)-OH; disulfide 2-17; N-terminus and C-terminus assumed), for which the cell viability result in series [1] and in series [3] was “no decrease in viability” throughout. Further, on TβR2 on HDFs, the “fluorescent intensities of FITC-labeled PTβR2I whichever of PTβR2I or TGFβ1 bound first” value is “consistent”. In addition, the “IL6 mRNA expression” value in series [2] was “significantly reduced”. In series [2], the PDGFBB gene expression result was “significantly enhanced”. Also, the “proliferation (dsDNA, day 3)” value in the series with HaCaTs is given as “Significantly improved proliferation”. Moreover, the “bioactivity of released PTβR2I” value at TβR2 on the HDFs is listed as “remained bioactive”.
